In patent US6610689B2, “HIV protease inhibitors based on amino acid derivatives” (priority 2001, dated 2003):

Molecular target: T1, HIV protease (Human immunodeficiency virus type 1 group M subtype B, UniProt P04585)
T1 construct: A third viral enzyme known as protease then cleaves the polyproteins
Assay: Enzymatic Assay for Determining the Inhibition Constant (Ki) of Synthetic Compounds Targeting the HIV Protease (fluorometric FRET assay)
Assay type: biochemical
Text: Enzymatic Assay for Determining the Inhibition Constant (Ki) of Synthetic Compounds Targeting the HIV Protease
This is a fluorometric assay based on the cleavage by protease of a substrate carrying a donor group (EDANS) and an acceptor group (DABCYL) on each side of the cleavage site, interacting together through fluorescence resonance energy transfer (FRET) as described by Matayoshi et al. (Science 247:[…], 1990).
After calculation of Vo and Vi, the inhibition constant (Ki) of the compound is determined using the equation of Henderson: [formula]
where Vo=the enzyme's initial velocity
Vi=the enzyme velocity in the presence of the inhibitory compound,
[I]=inhlibitor concentration, [S]=substrate concentration,
Km=Michaelis-Menten constant and Kiapp=apparent Ki
Graphs are traced and the Ki determined using GraphPad Prism software v. 3.0.

SMILES | Ki [nM]
Cc1ccc(S(=O)(=O)N(CC(C)C)[C@@H](CCCCNC(=O)[C@H](Cc2ccccc2)NC(=O)N2CCOCC2)C(=O)O)cc1 [Example 51, Nα-Isobutyl-Nα-(4-methylbenzenesulfonyl)-Nε-[N′α-(4-morpholinecarbonyl)-L-phenylalanyl]-L-lysine] | 0.9
Cc1ccc(S(=O)(=O)N(CC(C)C)[C@H](CO)CCCCNC(=O)[C@H](Cc2c[nH]c3ccccc23)NC(=O)N2CCOCC2)cc1 [Example 171, (2S,2′S) 2-N-Isobutyl-2-N-(4-methylbenzenesulfonyl)-6-N-[N′α-(4-morpholinecarbonyl)-S-tryptophanyl]-2,6-diaminohexanol] | 7.9
COC(=O)[C@H](CCCCNC(=S)[C@H](Cc1ccccc1)NC(=S)c1ccccc1)N(CC(C)C)S(=O)(=O)c1ccc(C)cc1 [Example 76, Nα-Isobutyl-Nα-(4-methylbenzenesulfonyl)-Nε-(N′α-thiobenzoyl-L-thiophenylalanyl)-L-lysine Methyl Ester] | > 300
CC(=O)N[C@@H](Cc1ccccc1)C(=O)NCCCC[C@@H](C(=O)O)N(CC(C)C)S(=O)(=O)c1ccc(C)cc1 [Example 30, Nα-Isobutyl-Nα-(4-methylbenzenesulfonyl)-Nε-(N′α-acetyl-L-phenylalanyl)-L-lysine] | 0.483
Cc1ccc(S(=O)(=O)N[C@H](Cc2ccccc2)C(=O)NCCCC[C@H](C(=O)O)N(CC(C)C)S(=O)(=O)c2ccc(C)cc2)cc1 [Example 66, Nα-Isobutyl-Nα-(4-methylbenzenesulfonyl)-Nε-[N′α-(4-methylbenzenesulfonyl)-D-phenylalanyl]-D-lysine] | > 300
Cc1ccc(S(=O)(=O)N(CC(C)C)[C@H](CO)CCCCNC(=O)[C@H](CC#N)NS(=O)(=O)c2ccccc2)cc1 [Example 188, (2S,2′S) 2-N-Isobutyl-2-N-(4-methylbenzenesulfonyl)-6-N-(N′α-benzenesulfonyl-S-cyanoalanyl)-2,6-diaminohexanol] | 79
CC(C)CN([C@H](CO)CCCCNC(=O)[C@H](Cc1c[nH]c2ccccc12)NC(=O)C(C)(C)C)S(=O)(=O)c1ccc(N)cc1 [Example 169, (2S,2′S) 2-N-(4-Aminobenzenesulfonyl)-2-N-isobutyl-6-N-(N′α-pivaloyl-S-tryptophanyl)-2,6-diaminohexanol] | 1.2
CC(C)CN([C@H](CO)CCCCNC(=O)[C@H](Cc1c[nH]c2ccccc12)NS(=O)(=O)c1ccc(N)cc1)S(=O)(=O)c1ccc(N)cc1 [Example 187, (2S,2′S) 2-N-(4-Aminobenzenesulfonyl)-2-N-isobutyl-6-N-[N′α-(4-aminobenzenesulfonyl)-S-tryptophanyl]-2,6-diaminohexanol] | 0.2
Cc1ccc(S(=O)(=O)N(CC(C)C)[C@@H](CCCCNC(=O)[C@H](Cc2c[nH]c3ccccc23)NC(=O)CCc2ccccc2)C(=O)O)cc1 [Example 133, Nα-Isobutyl-Nα-(4-methylbenzenesulfonyl)-Nε-(N′α-dihydrocinnamoyl-L-tryptophanyl)-L-lysine] | 0.606
CC(C)CN([C@H](CO)CCCCNC(=O)[C@H](Cc1c[nH]c2ccccc12)NS(=O)(=O)c1ccc([N+](=O)[O-])cc1)S(=O)(=O)c1ccc(N)cc1 [Example 179, (2S,2′S) 2-N-(4-Aminobenzenesulfonyl)-2-N-isobutyl-6-N-[N′α-(4-nitrobenzenesulfonyl)-S-tryptophanyl]-2,6-diaminohexanol] | 32
Cc1ccc(S(=O)(=O)N(CC(C)C)[C@@H](CCCCNC(=O)[C@H](Cc2c[nH]c3ccccc23)NS(=O)(=O)c2ccccc2)C(N)=O)cc1 [Example 189, Nα-Isobutyl-Nα-(4-methylbenzenesulfonyl)-Nε-(N′α-benzenesulfonyl-L-tryptophanyl)-L-lysine Amide] | 1.9
CSCC[C@H](NC(=O)OC(C)(C)C)C(=O)NCCCC[C@@H](C(=O)O)N(CC(C)C)S(=O)(=O)c1ccc(C)cc1 [Example 82, Nα-Isobutyl-Nα-(4-methylbenzenesulfonyl)-Nε-(N′α-tert-butoxycarbonyl-L-methionyl)-L-lysine] | 65
